How the values were obtained:
Type in all cases: in vivo
mice [1] = assay: tail-flick test after intrathecal injection in mice; design: unit not given here; conditions: 15 minutes after intrathecal injection of 5 µl, mean ± S.E.M.
Protocol: (§1) Antinociceptive effects in mice were established in the following test. The effect 15 minutes after intrathecal injection of a volume of 5 µl containing different doses of guanfacine was established. The vehicle used was a physiological solution of sodium chloride.

mice [2] = assay: behavioural response (paw licking) after subcutaneous formaline in mice; conditions: 1% formaline s.c. 20 µl, 5 µl, 0.01% (0.5 µg) of guanfacine i.th. 15 minutes before, ± S.E.M., 10 animals
Protocol: Behavioural response in mice after subcutaneous injection of 20 µl of a physiological solution of sodium chloride or a 1 % solution of formaline on the dorsum of either hind paw.
5 µl, 0.01% ([…]) of guanfacine or the same volume of a physiological solution of sodium chloride were injected intrathetecally 15 minutes before the subcutaneous injection of formaline. The accumulated reaction, i.e. the total time of licking on the injected paw, was measured during the 5 minutes after the injection of formaline.
The results are expressed as mean accumulated response during 5 minutes in seconds ± S.E.M. Each group consisted of 10 animals.

male Sprague-Dawley rats [3] = assay: tail-flick test after intrathecal injection in rats; design: unit not given here; conditions: rat, mean ± S.E.M.
Protocol: (§2) The antinociceptive effect of guanfacine may be established by the hot plate and tail-flick test.
(§3) Testing of tail-flick was performed using an IITC Inc. Mod. 33 Analgesia- meter@, with the light focused on the tip of the tail (d'Amour, F.E. and Smith, D.L. J. Pharmacol. Exp. Ther. 72, 74, 1941). The intensity of the beam was adjusted to give a reaction time of 3-4 sec. before intrathecal injection of the drug solutions. For the hot plate testing, a modification of the Eddy and Leimbach method (Eddy, N.B. and Leimbach, D. J. Pharmacol. Exp. Ther. 107, 385, 1952) was used. An IITC Inc. Mod. 35-D Analgesiameter® was set at a temperature of 58^±0.2°C. The criteria for a pain response was licking of either of the hindpaws.
(§4) We examined the pain responsiveness of male Sprague-Dawley rats in a weight range of 300-350 g. […] The catheter was fixed at a surgical operation. The animals were kept in the animal colony in separate cages until testing took place 1 week after operation. The drug was administered in a volume of 15 µl, and testing of hot plate and tail-flick reaction latencies took place at the intervals given in the tables. Animals given the combination of guanfacine and bupivacaine were not tested until the local anaesthetic effect of bupivacaine had disappeared, which normally took between 10 and 15 minutes.
(§5) Guanfacine or a physiologically acceptable salt thereof was administered alone or in combination with the local anaesthetic agent bupivacaine or a physiologically acceptable salt thereof. When guanfacine'was administered together with bupivacaine first an initial phase of regional anaesthesia restricted to the hind-legs and the lower derma- tomes was obtained. When this effect had disappeared the animals were still non-responsive in the hot plate and tail-flick test for up to at least 7 hours after the injection, cf Table 2 below.

male Sprague-Dawley rats [4] = assay: hot plate test after intrathecal injection in rats; design: unit not given here; conditions: rat, mean ± S.E.M.
Protocol: as §2, §3, §4, §5

mice [5] = assay: hot-plate test after intrathecal injection in mice; design: unit not given here; conditions: 15 minutes after intrathecal injection of 5 µl, mean ± S.E.M.
Protocol: as §1

[6] = 0.001 % guanfacine, dose 0.05 µg
[7] = 0.002 % guanfacine, dose 0.1 µg
[8] = 0.004 % guanfacine, dose 0.2 µg
[9] = 0.006 % guanfacine, dose 0.3 µg
[10] = intrathecal 75 µg guanfacine (15 µl 0.5 %), 1 min, 100x(test-latency - pre-drug latency)/pre-drug latency, n=4
[11] = intrathecal 75 µg guanfacine, 5 min
[12] = intrathecal 75 µg guanfacine, 10 min
[13] = intrathecal 75 µg guanfacine, 20 min
[14] = intrathecal 75 µg guanfacine, 30 min
[15] = intrathecal 75 µg guanfacine, 45 min
[16] = intrathecal 75 µg guanfacine, 8 hours
[17] = intrathecal 75 µg guanfacine, 22 hours

`N=C(N)NC(=O)Cc1c(Cl)cccc1Cl` [guanfacine, 2,6-dichlorophenyl-acetyl-guanidine] was tested, and the “Antinociception tail-flick (cut-off=10 sec)” value (mice [1]; [6]) was 29±23, the “Antinociception tail-flick (cut-off=10 sec)” value (mice [1]; [7]) was 26±13 and the “Antinociception tail-flick (cut-off=10 sec)” value (mice [1]; [8]) was 59±17. The “Antinociception tail-flick (cut-off=10 sec)” value (mice [1]; [9]) was 86±18, the “mean accumulated response (total time of licking on the injected paw) during 5 minutes” value (mice [2]) was 9 ± 2 s and the “Antinociception tail-flick (cut-off=10 sec.)” value (male Sprague-Dawley rats [3]; [10]) was 27.5±17. The “Antinociception tail-flick (cut-off=10 sec.)” value (male Sprague-Dawley rats [3]; [11]) was 92.75±26, the “Antinociception tail-flick (cut-off=10 sec.)” value (male Sprague-Dawley rats [3]; [12]) was 110±33 and the “Antinociception tail-flick (cut-off=10 sec.)” value (male Sprague-Dawley rats [3]; [13]) was 147±13. The “Antinociception tail-flick (cut-off=10 sec.)” value (male Sprague-Dawley rats [3]; [14]) was 153±10, the “Antinociception tail-flick (cut-off=10 sec.)” value (male Sprague-Dawley rats [3]; [15]) was 156±8 and the “Antinociception tail-flick (cut-off=10 sec.)” value (male Sprague-Dawley rats [3]; [16]) was 138±20. The “Antinociception tail-flick (cut-off=10 sec.)” value (male Sprague-Dawley rats [3]; [17]) was 62±8, the “Antinociception hot plate (cut-off=30 sec.)” value (from here on “Antinociception hot plate”) (male Sprague-Dawley rats [4]; [10]) was -15±12 and the “Antinociception hot plate” value (male Sprague-Dawley rats [4]; [11]) was -15±6. The “Antinociception hot plate” value (male Sprague-Dawley rats [4]; [12]) was 29±18, the “Antinociception hot plate” value (male Sprague-Dawley rats [4]; [13]) was 62±29 and the “Antinociception hot plate” value (male Sprague-Dawley rats [4]; [14]) was 116±36. For the same molecule, the “Antinociception hot plate” value (male Sprague-Dawley rats [4]; [15]) was 239±23, the “Antinociception hot plate” value (male Sprague-Dawley rats [4]; [16]) was 124±56 and the “Antinociception hot plate” value (male Sprague-Dawley rats [4]; [17]) was 41±12. For the same molecule, the “Antinociception hot plate” value (male Sprague-Dawley rats [4]; intrathecal 75 µg guanfacine, 27 hours) was 25±16, the “Antinociception hot-plate (cut-off=30 sec)” value (“Antinociception hot-plate” below) (mice [5]; [6]) was 128±29 and the “Antinociception hot-plate” value (mice [5]; [7]) was 152±33. The “Antinociception hot-plate” value (mice [5]; [8]) was 152±47 and the “Antinociception hot-plate” value (mice [5]; [9]) was 168±40.
